Experimental data taken from PMC7539972, “Role of Two Exceptional trans Adenylation Domains and MbtH‐like Proteins in the Biosynthesis of the Nonribosomal Peptide WS9324A from Streptomyces calvus ATCC 13382” (Chembiochem, 2020).

Legend:
Assay in all cases: […]PPi release adenylation assay
Format in all cases: biochemical
[1] = target: T1, Cal22Thr (Streptomyces calvus, UniProt A0A0N9LS39); details: co-substrate threonine 0.2 mM; 0.15 mM ATP, 1 mM MgCl2, 25 °C, 3 h; labelled compound
T1 construct: gene cal22; complete ORF, A-PCP didomain, N-terminal His6 tag; E. coli BL21(DE3) ΔybdZ, coexpressed with untagged Cal4 (Cal4 not copurified)
T1 sequence (A0A0N9LS39 entry or part of it): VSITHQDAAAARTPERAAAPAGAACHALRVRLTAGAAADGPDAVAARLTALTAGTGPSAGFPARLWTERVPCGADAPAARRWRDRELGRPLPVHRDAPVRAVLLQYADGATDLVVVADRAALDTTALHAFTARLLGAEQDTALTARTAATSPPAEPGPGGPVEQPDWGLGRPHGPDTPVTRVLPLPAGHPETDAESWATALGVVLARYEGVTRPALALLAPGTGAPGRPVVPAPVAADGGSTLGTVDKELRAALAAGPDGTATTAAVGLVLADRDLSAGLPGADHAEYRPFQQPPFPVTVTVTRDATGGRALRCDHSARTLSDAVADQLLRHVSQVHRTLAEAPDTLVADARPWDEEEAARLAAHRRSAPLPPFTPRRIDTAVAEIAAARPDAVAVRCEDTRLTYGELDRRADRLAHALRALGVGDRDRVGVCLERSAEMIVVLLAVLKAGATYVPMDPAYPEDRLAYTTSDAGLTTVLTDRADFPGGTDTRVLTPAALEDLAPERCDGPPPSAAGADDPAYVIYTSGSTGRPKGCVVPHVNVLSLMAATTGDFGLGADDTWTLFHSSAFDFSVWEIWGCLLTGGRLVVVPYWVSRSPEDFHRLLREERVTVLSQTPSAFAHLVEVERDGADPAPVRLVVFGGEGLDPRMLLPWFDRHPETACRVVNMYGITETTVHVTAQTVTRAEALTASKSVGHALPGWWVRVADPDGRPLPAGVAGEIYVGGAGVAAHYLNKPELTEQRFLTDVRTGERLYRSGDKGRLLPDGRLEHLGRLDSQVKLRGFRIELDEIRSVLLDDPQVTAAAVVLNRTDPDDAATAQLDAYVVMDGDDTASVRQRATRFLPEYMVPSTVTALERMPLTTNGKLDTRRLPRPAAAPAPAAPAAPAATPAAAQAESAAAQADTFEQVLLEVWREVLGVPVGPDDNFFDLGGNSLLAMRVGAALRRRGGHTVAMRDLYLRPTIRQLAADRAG

[2] = target: T2, Cal23Asn/Cal4 complex (Streptomyces calvus, UniProt A0A0N9M336); details: co-substrate asparagine 0.2 mM; 0.15 mM ATP, 1 mM MgCl2, 25 °C, 3 h; labelled compound
T2 construct: gene cal23; complete ORF, A-PCP didomain, N-terminal His6 tag; copurified with untagged MbtH-like protein Cal4; E. coli BL21(DE3) ΔybdZ; with MbtH-like protein
T2 sequence (A0A0N9M336 entry or part of it): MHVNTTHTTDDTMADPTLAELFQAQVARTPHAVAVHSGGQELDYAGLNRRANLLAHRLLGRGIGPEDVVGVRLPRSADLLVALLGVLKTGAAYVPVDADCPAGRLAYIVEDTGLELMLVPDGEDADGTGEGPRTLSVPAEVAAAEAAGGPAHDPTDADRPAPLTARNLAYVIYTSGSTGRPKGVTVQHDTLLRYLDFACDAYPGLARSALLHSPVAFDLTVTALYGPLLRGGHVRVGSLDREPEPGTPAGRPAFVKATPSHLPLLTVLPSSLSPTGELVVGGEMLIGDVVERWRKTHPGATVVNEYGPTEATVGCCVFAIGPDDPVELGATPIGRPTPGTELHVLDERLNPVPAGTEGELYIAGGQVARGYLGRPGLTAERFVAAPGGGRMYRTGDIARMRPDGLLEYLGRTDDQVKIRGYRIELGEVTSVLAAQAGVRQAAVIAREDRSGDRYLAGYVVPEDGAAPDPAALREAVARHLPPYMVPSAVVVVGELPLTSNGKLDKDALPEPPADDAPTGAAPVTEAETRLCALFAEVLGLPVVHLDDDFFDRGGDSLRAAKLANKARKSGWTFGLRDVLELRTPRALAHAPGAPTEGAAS
T2 sequence (A0A0N9M601 entry or part of it, further chain): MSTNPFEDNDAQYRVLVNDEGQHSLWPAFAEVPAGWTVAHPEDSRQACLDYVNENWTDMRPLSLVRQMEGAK

[3] = target: T2, Cal23Asn/Cal4 complex; details: 0.2 mM amino acid, 0.15 mM ATP, 1 mM MgCl2, 25 °C, 3 h, 30 μM enzyme; most active of 20 proteinogenic amino acids
[4] = target: T1, Cal22Thr; details: 0.2 mM amino acid, 0.15 mM ATP, 1 mM MgCl2, 25 °C, 3 h, 30 μM enzyme; most active of 20 proteinogenic amino acids

SMILES: Nc1ncnc2c1ncn2[C@@H]1O[C@H](COP(=O)(O)OP(=O)(O)OP(=O)(O)O)[C@@H](O)[C@H]1O [ATP]
- [33P]PPi release adenylation assay [1]: the reaction of ATP with an amino acid to form an amino acyl adenylate was measured
- [33P]PPi release adenylation assay [2]: the reaction of ATP with an amino acid to form an amino acyl adenylate was measured

SMILES: NC(=O)C[C@H](N)C(=O)O [asparagine]
- relative adenylation activity [3]: Cal23Asn/Cal4 complex was most active towards asparagine, the predicted substrate of the A‐domain

SMILES: C[C@@H](O)[C@H](N)C(=O)O [threonine]
- relative adenylation activity [4]: Cal22Thr was observed to be most specific towards its predicted substrate threonine
